Laboratory results reported in ChEMBL document CHEMBL1201862, “PubChem BioAssay data set” (2004).
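Compound exposure: 48 hours, 5 concentrations, 96-well plates. GI50 marks 50% less growth.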 The source made the active and inactive calls. No stated cut-off is given here; in the data, active = GI50 up to about 1.1 µM and inactive = higher.

What was measured:
Experiment in all cases: NCI anticancer screen, dose series, 48 h
DU-145 = tested on: DU-145
OVCAR-3 = tested on: OVCAR-3
EKVX = tested on: EKVX
HCT-116 = tested on: HCT-116
HT-29 = tested on: HT-29
Malme-3M = tested on: Malme-3M
SK-MEL-5 = tested on: SK-MEL-5
UACC-62 = tested on: UACC-62
SNB-19 = tested on: SNB-19
NCI-H460 = tested on: NCI-H460
NCI/ADR-RES = tested on: NCI/ADR-RES
MCF7 = tested on: MCF7
HOP-92 = tested on: HOP-92
SF-539 = tested on: SF-539
LOX IMVI = tested on: LOX IMVI
MDA-MB-231 = tested on: MDA-MB-231
HCT-15 = tested on: HCT-15
UACC-257 = tested on: UACC-257
SNB-75 = tested on: SNB-75
BT-549 = tested on: BT-549

SMILES | GI50 (DU-145) | GI50 (OVCAR-3) | GI50 (EKVX) | GI50 (HCT-116) | GI50 (HT-29) | GI50 (Malme-3M) | GI50 (SK-MEL-5) | GI50 (UACC-62) | GI50 (SNB-19) | GI50 (NCI-H460) | GI50 (NCI/ADR-RES) | GI50 (MCF7) | GI50 (HOP-92) | GI50 (SF-539) | GI50 (LOX IMVI) | GI50 (MDA-MB-231) | GI50 (HCT-15) [µM] | GI50 (UACC-257) | GI50 (SNB-75) | GI50 (BT-549)
Cc1ccc2ccccc2c1CSc1nc(N)nc2c1ncn2CC(C)C | 82.4 µM (inactive) | 14.4 µM (inactive) | 13.6 µM (inactive) | 9.82 µM (inactive) | 9.14 µM (inactive) | 9.31 µM (inactive) | 7.05 µM (inactive) | 26.3 µM (inactive) | 48.3 µM (inactive) | 14.2 µM (inactive) | 21.8 µM (inactive) | 12.9 µM (inactive) | 17.8 µM (inactive) | 7.78 µM (inactive) | 34.8 µM (inactive) | > 30.9 µM (inactive) | 10.9 | 11.7 µM (inactive) | 43.3 µM (inactive) | 39.4 µM (inactive)
CC(C)c1ccccc1[S+]([O-])c1ccccc1C(C)(C)O (stereo not given) | > 100 µM (inactive) | > 100 µM (inactive) | > 100 µM (inactive) | > 100 µM (inactive) | 96.2 µM (inactive) | > 100 µM (inactive) | 27.2 µM (inactive) | > 100 µM (inactive) | 37.3 µM (inactive) | 30.8 µM (inactive) | 64.6 µM (inactive) | > 100 µM (inactive) | > 100 µM (inactive) | > 100 µM (inactive) | 69.5 µM (inactive) | 88.9 µM (inactive) | 82 | > 100 µM (inactive) | 32.3 µM (inactive) | > 100 µM (inactive)
CC[C@@]1(O)C(=O)OCc2c1cc1n(c2=O)Cc2cc3c(NC(=O)CN)cccc3nc2-1 | 0.065 µM (active) | 2.17 µM (inactive) | 16.6 µM (inactive) | 0.441 µM (active) | 2.69 µM (inactive) | 1.41 µM (inactive) | 0.407 µM (active) | 0.0506 µM (active) | 0.154 µM (active) | < 0.0318 µM (active) | 0.188 µM (active) | 0.0466 µM (active) | 3.48 µM (inactive) | < 0.0241 µM (active) | 0.0575 µM (active) | 14.5 µM (inactive) | 8.13 | 1.43 µM (inactive) | 0.0733 µM (active) | 0.171 µM (active)
c1ccc(NN(Cc2cnccn2)c2ccccc2)cc1 | > 100 µM (inactive) | 63.4 µM (inactive) | 75.5 µM (inactive) | 60.5 µM (inactive) | 97.3 µM (inactive) | > 100 µM (inactive) | 40.2 µM (inactive) | 81.8 µM (inactive) | > 100 µM (inactive) | 91.8 µM (inactive) | 40.5 µM (inactive) | 44.9 µM (inactive) | 19.1 µM (inactive) | > 100 µM (inactive) | 77.6 µM (inactive) | 76.9 µM (inactive) | 79.8 | 51.6 µM (inactive) | > 100 µM (inactive) | > 100 µM (inactive)
CN(C)c1ccc(/C=C/c2cc[n+](C)c3ccccc23)cc1 | 5.6 µM (inactive) | 1.77 µM (inactive) | 34.7 µM (inactive) | 1.58 µM (inactive) | 2.04 µM (inactive) | 4.51 µM (inactive) | 2.19 µM (inactive) | 3.13 µM (inactive) | 2.34 µM (inactive) | 2.9 µM (inactive) | > 100 µM (inactive) | 2.29 µM (inactive) | 2.96 µM (inactive) | 5.56 µM (inactive) | 3.48 µM (inactive) | 5.94 µM (inactive) | 29.9 | 1.2 µM (inactive) | 3.45 µM (inactive) | 0.437 µM (active)
CC1(C)CCCCCCCCCC(C)(CCCCCCCCCCCCO)C1=O (stereo not given) | 17.7 µM (inactive) | 15.6 µM (inactive) | 19.3 µM (inactive) | 17.7 µM (inactive) | 16.9 µM (inactive) | 16.4 µM (inactive) | 19.5 µM (inactive) | 18.3 µM (inactive) | 13 µM (inactive) | 18.3 µM (inactive) | 18.5 µM (inactive) | 16.8 µM (inactive) | 16.9 µM (inactive) | 16.6 µM (inactive) | 17.6 µM (inactive) | 15.3 µM (inactive) | 21.7 | 16.2 µM (inactive) | 16.1 µM (inactive) | 16.6 µM (inactive)
C[C@@H]1CC[C@@]2(NC1)O[C@H]1C[C@H]3[C@@H]4CC[C@H]5C[C@@H](O)CC[C@]5(C)[C@H]4CC[C@]3(C)[C@H]1[C@@H]2C | > 100 µM (inactive) | 61.7 µM (inactive) | > 100 µM (inactive) | 45.5 µM (inactive) | 57.4 µM (inactive) | > 100 µM (inactive) | 42.1 µM (inactive) | 57.3 µM (inactive) | 30.6 µM (inactive) | 54.3 µM (inactive) | 30.8 µM (inactive) | 51.5 µM (inactive) | 93.5 µM (inactive) | 25.3 µM (inactive) | 32.7 µM (inactive) | 38.1 µM (inactive) | 36.9 | > 100 µM (inactive) | 61.9 µM (inactive) | > 100 µM (inactive)
